Measured values: paper PMC8847695 (Frontiers in Chemistry, 2022)
Values belong to the compound of their own block, whether it stands above or below them.

Tests used:
Format in all cases: binding
[1] = target: T1, CAMK1G (1-320) (Homo sapiens, UniProt Q96NX5); experiment: STD-NMR fragment screening, CAMK1G; details: 1 = hit, 0 = no hit
T1 construct: made in house; host or cells: E. coli BL21 (DE3) pLysS
Method: (§1) All fragments were stored at −20°C as solids in argon flushed glass bottles. For NMR screening, fragments were weighed and dissolved in DMSO-d6 to a stock concentration of 300 mM. Mother plates were prepared with a 100 mM concentration. From these plates, daughter plates were prepared with the fragments mixed in the plates to a concentration of 50 mM for each fragment. Daughter plates were opened a maximum of eight times. The plates were argon flushed and sealed with a HT121TS (HTA) and Foil Heat Seal (Biozym).
(§2) For long time measurements, like the protein ^1H NMR spectrum, the buffer exchange was performed twice to reduce residual buffer peaks. All experiments were performed on a Bruker Avance III HDX 700 instrument, equipped with a 5 mm Prodigy TCI cryo-probehead. For every protein, a standard ^1H NMR experiment with 1 k scans and water suppression through presaturation was performed. […] The on-resonance frequency, which was determined from the ^1H NMR spectra of the protein, was between 0.5 and 0.6 ppm; 40 ppm was used as the off-resonance frequency. For an interleaved acquisition of the on- and off-resonance, a pseudo-2D scheme was applied. The saturation was done by Gaussian pulses with a length of 50 ms and 60 dB of attenuation, with an interpulse delay of 1 ms leading to an excitation bandwidth of about 42 Hz. The screening was done with 16 scans of on- and off-resonance scans each, with a 3 s saturation time. The samples contained final concentrations of 20 µM protein, 10% (^V/V) DMSO-d6, and 1 mM of each of the two fragments. A ^1H-NMR experiment was performed for each compound to act as a reference spectrum in the STD experiments. All NMR experiments were carried out at 25°C.
(§3) Fifteen of these compounds contain the same halogen twice. No compound bears mixtures of different halogen atoms. Four proteins (AAK1, CAMK1G, IDO1, and DOT1L) were screened against this HEFLib using STD-NMR. A fragment was considered a hit if the peak intensity in the difference spectrum was three times higher than the local background noise. […] Chemical compatibility and peak complementarity were assured for these mixtures. Samples containing more than two fragments were avoided to minimize the possible target competition and to decrease the risk of fragment interactions. […] The ^1H reference NMR spectrum of the mixture is shown in red for comparison. […] As fragment mixtures can lead to competitive effects between their fragments, it is not advised to use the quantification of peak mixtures for hit ranking.

[2] = target: T2, DOT1L (1-416) (Homo sapiens, UniProt Q8TEK3); experiment: STD-NMR fragment screening, DOT1L; details: 1 = hit, 0 = no hit
T2 construct: made in house; host or cells: E. coli BL21 (DE3) pLysS
T2 sequence (Q8TEK3 1-416): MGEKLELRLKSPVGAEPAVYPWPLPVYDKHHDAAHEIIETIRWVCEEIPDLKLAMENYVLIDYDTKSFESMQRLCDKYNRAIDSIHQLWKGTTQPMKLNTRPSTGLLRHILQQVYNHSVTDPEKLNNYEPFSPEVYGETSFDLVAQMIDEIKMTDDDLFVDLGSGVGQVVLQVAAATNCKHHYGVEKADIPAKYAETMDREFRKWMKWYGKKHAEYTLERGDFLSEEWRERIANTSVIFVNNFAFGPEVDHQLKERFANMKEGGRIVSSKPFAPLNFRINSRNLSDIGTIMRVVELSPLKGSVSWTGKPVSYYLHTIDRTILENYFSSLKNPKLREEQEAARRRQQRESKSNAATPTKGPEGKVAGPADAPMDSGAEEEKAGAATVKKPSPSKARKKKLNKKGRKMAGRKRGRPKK
Method: as §1, §2, §3

[3] = target: AAK1 (121-471) (Homo sapiens, UniProt Q2M2I8); experiment: STD-NMR fragment screening, AAK1; details: for AAK1 (STD-NMR hit flag): 1 = hit, 0 = no hit
Sequence of AAK1 (121-471) (Q2M2I8 46-315 limits assumed): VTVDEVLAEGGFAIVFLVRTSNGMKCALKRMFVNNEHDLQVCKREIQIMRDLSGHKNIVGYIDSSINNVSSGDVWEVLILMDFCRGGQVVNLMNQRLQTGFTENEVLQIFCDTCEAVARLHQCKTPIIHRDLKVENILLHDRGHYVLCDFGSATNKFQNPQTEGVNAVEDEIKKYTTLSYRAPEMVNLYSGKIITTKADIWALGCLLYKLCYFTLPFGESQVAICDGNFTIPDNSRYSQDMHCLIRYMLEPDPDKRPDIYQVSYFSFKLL
Method: as §1, §2, §3

[4] = target: T3, IDO1 (1-435) (Homo sapiens, UniProt P14902); experiment: STD-NMR fragment screening, IDO1; details: 1 = hit, 0 = no hit
T3 construct: His-tag of pET15b with TEV site (thrombin site replaced) (cleaved yes); made in house; host or cells: E. coli Rosetta 2 (DE3) pLysS
T3 sequence (P14902 whole entry, the tested form may be a part): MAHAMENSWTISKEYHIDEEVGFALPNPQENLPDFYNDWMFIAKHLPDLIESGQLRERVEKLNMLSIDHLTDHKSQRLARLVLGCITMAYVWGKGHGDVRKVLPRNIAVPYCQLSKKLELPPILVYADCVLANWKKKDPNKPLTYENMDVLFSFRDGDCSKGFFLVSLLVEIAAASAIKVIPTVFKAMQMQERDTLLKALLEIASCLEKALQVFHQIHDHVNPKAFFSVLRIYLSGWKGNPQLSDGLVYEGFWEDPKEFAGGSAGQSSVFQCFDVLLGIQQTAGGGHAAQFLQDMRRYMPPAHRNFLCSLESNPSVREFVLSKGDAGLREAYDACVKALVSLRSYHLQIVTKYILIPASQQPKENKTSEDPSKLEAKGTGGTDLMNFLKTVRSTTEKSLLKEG
Method: as §1, §2, §3

T1 sequence (Q96NX5 1-320): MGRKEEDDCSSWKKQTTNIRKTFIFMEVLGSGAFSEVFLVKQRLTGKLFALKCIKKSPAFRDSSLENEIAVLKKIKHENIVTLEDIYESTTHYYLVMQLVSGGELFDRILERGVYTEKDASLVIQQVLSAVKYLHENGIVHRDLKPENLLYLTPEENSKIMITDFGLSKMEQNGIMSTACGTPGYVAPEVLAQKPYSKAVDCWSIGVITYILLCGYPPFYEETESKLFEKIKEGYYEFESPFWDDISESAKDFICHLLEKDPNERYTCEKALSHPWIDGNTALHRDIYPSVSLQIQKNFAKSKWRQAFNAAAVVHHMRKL

SMILES: Fc1ncccc1I [Fragment B02291262]
CAMK1G (STD-NMR hit flag) [1]: 0
DOT1L (STD-NMR hit flag) [2]: 0
AAK1 (STD-NMR hit flag) [3]: 0
IDO1 (STD-NMR hit flag) [4]: 0

SMILES: Brc1noc(C2CC2)n1 [Fragment B02291272]
CAMK1G (STD-NMR hit flag) [1]: 0
DOT1L (STD-NMR hit flag) [2]: 0
AAK1 (STD-NMR hit flag) [3]: 0
IDO1 (STD-NMR hit flag) [4]: 0

SMILES: O=C(c1ccc(Br)cc1)C12CN3CN(CN(C3)C1)C2 [Fragment B02290401]
CAMK1G (STD-NMR hit flag) [1]: 0
DOT1L (STD-NMR hit flag) [2]: 0
AAK1 (STD-NMR hit flag) [3]: 0
IDO1 (STD-NMR hit flag) [4]: 0

SMILES: Clc1cncc(-n2cccn2)n1 [Fragment B02291256]
CAMK1G (STD-NMR hit flag) [1]: 1
DOT1L (STD-NMR hit flag) [2]: 0
AAK1 (STD-NMR hit flag) [3]: 1
IDO1 (STD-NMR hit flag) [4]: 0

SMILES: Clc1cnc2nn[nH]c2c1 [Fragment B02290468]
CAMK1G (STD-NMR hit flag) [1]: 0
DOT1L (STD-NMR hit flag) [2]: 0
AAK1 (STD-NMR hit flag) [3]: 0
IDO1 (STD-NMR hit flag) [4]: 0

SMILES: Nc1cccc(Br)c1O [Fragment B02289603]
CAMK1G (STD-NMR hit flag) [1]: 0
DOT1L (STD-NMR hit flag) [2]: 0
AAK1 (STD-NMR hit flag) [3]: 0
IDO1 (STD-NMR hit flag) [4]: 0

SMILES: NS(=O)(=O)c1cc(C(=O)O)ccc1Cl [Fragment B02291263]
CAMK1G (STD-NMR hit flag) [1]: 0
DOT1L (STD-NMR hit flag) [2]: 0
AAK1 (STD-NMR hit flag) [3]: 0
IDO1 (STD-NMR hit flag) [4]: 0

SMILES: Nc1ccc2[nH]nc(Br)c2c1 [Fragment B02289605]
CAMK1G (STD-NMR hit flag) [1]: 1
DOT1L (STD-NMR hit flag) [2]: 0
AAK1 (STD-NMR hit flag) [3]: 0
IDO1 (STD-NMR hit flag) [4]: 0

SMILES: Oc1ccc(Cl)cc1/C=C/C12CN3CN(CN(C3)C1)C2 [Fragment B02291153]
CAMK1G (STD-NMR hit flag) [1]: 0
DOT1L (STD-NMR hit flag) [2]: 0
AAK1 (STD-NMR hit flag) [3]: 0
IDO1 (STD-NMR hit flag) [4]: 0

SMILES: Oc1ccc(Cl)cc1 [Fragment 4485]
STD-NMR hit ([3]; 1 mM fragment, 20 µM protein, hit if peak in difference spectrum three times higher than local noise): none of the signals of fragment 4485 (Signal 4 and 5) are distinguishable from the baseline noise

The next lines start with the values.

CAMK1G (STD-NMR hit flag) [1]: 1
DOT1L (STD-NMR hit flag) [2]: 0
AAK1 (STD-NMR hit flag) [3]: 0
IDO1 (STD-NMR hit flag) [4]: 0
SMILES: OCc1cc2c(cc1Cl)OCO2 [Fragment B02291235]

CAMK1G (STD-NMR hit flag) [1]: 0
DOT1L (STD-NMR hit flag) [2]: 0
AAK1 (STD-NMR hit flag) [3]: 0
IDO1 (STD-NMR hit flag) [4]: 0
SMILES: O=C(O)Cc1ccc(Cl)nc1 [Fragment B02291249]

CAMK1G (STD-NMR hit flag) [1]: 0
DOT1L (STD-NMR hit flag) [2]: 0
AAK1 (STD-NMR hit flag) [3]: 1
IDO1 (STD-NMR hit flag) [4]: 1
SMILES: Cc1nn(C)c(Cl)c1S(N)(=O)=O [Fragment B02290522]

CAMK1G (STD-NMR hit flag) [1]: 0
DOT1L (STD-NMR hit flag) [2]: 0
AAK1 (STD-NMR hit flag) [3]: 0
IDO1 (STD-NMR hit flag) [4]: 0
SMILES: Nc1nc(Cl)c(NC=O)c(Cl)n1 [Fragment B02297412]

CAMK1G (STD-NMR hit flag) [1]: 0
DOT1L (STD-NMR hit flag) [2]: 0
AAK1 (STD-NMR hit flag) [3]: 0
IDO1 (STD-NMR hit flag) [4]: 0
SMILES: O=C(O)c1nn(Cn2cccn2)cc1Cl [Fragment B02291154]

CAMK1G (STD-NMR hit flag) [1]: 1
DOT1L (STD-NMR hit flag) [2]: 0
AAK1 (STD-NMR hit flag) [3]: 0
IDO1 (STD-NMR hit flag) [4]: 1
SMILES: Cc1nn(CC(=O)O)c(C)c1Cl [Fragment B02291243]

CAMK1G (STD-NMR hit flag) [1]: 0
DOT1L (STD-NMR hit flag) [2]: 0
AAK1 (STD-NMR hit flag) [3]: 1
IDO1 (STD-NMR hit flag) [4]: 0
SMILES: Cc1cc(N)c(Br)cn1 [Fragment B02297406]

CAMK1G (STD-NMR hit flag) [1]: 0
DOT1L (STD-NMR hit flag) [2]: 0
AAK1 (STD-NMR hit flag) [3]: 0
IDO1 (STD-NMR hit flag) [4]: 0
SMILES: O=C(O)c1n[nH]cc1Br [Fragment B02290463]

CAMK1G (STD-NMR hit flag) [1]: 0
DOT1L (STD-NMR hit flag) [2]: 0
AAK1 (STD-NMR hit flag) [3]: 0
IDO1 (STD-NMR hit flag) [4]: 0
SMILES: COCn1nc(Br)[nH]c1=O [Fragment B02290404]

CAMK1G (STD-NMR hit flag) [1]: 0
DOT1L (STD-NMR hit flag) [2]: 0
AAK1 (STD-NMR hit flag) [3]: 1
IDO1 (STD-NMR hit flag) [4]: 0
SMILES: COCn1nc(Br)nc1C(N)=O [Fragment B02290403]

CAMK1G (STD-NMR hit flag) [1]: 0
DOT1L (STD-NMR hit flag) [2]: 0
AAK1 (STD-NMR hit flag) [3]: 0
IDO1 (STD-NMR hit flag) [4]: 0
SMILES: O=C(O)c1cnc(Cl)cn1 [Fragment B02291251]
